Assay results reported in patent US8324412B2, “Method for preparing 4-[17β-methoxy-17α-methoxymethyl-3-oxoestra-4,9-dien-11β-yl]benzaldehyde (E)-oxime (asoprisnil)” (Bayer Pharma AG, priority 2006, dated 2012).

Assay: Stability of the prior-art amorphous solid form in the solid pharmaceutical form under ICH accelerated conditions
Type: physicochemical
Conditions: amorphous solid form described in EP 129 26 07, ICH accelerated conditions (40° C., 75% r.h.)
Text: According to the details disclosed in the literature, it is not possible to prepare the individual intermediates on the manufacturing scale in such a way that the medicinally active asoprisnil and its precursors can be obtained therefrom reliably and reproducibly and having the analytical parameters required by the authorities or by the legislation pursuant to ICH Q6A Guidance, 2000, such as byproduct profile, content of active ingredient, chemical and physical purity, and stability. […] The suitability of the asoprisnil obtainable by this method for a solid pharmaceutical form is accordingly low.

COC[C@]1(OC)CC[C@H]2[C@@H]3CCC4=CC(=O)CCC4=C3[C@@H](c3ccc(/C=N/O)cc3)C[C@@]21C [asoprisnil, 4-[17β-methoxy-17α-methoxymethyl-3-oxoestra-4,9-dien-11β-yl]benzaldehyde (E)-oxime]
Physical stability in the solid pharmaceutical form (recrystallization): partial to complete recrystallization
